Measurements as given in article PMC12586182 (Frontiers in Oncology, 2025).

Assays:
[1] = target: T1, FMS (Homo sapiens, UniProt P07333); test: Kinase panel profiling at 1 µmol/L (mobility shift assay, Carna); type: biochemical; conditions: 1 µmol/L of BTK inhibitor
T1 construct: purchased Carna Biosciences

[2] = target: T2, HCK (Homo sapiens, UniProt P08631); test: as above; type: biochemical; conditions: 1 µmol/L of BTK inhibitor
T2 construct: purchased Carna Biosciences

[3] = target: T3, TRKA (Homo sapiens, UniProt P04629); test: as above; type: biochemical; conditions: 1 µmol/L of BTK inhibitor
T3 construct: purchased Carna Biosciences

[4] = target: T4, TYK2 (Homo sapiens, UniProt P29597); test: as above; type: biochemical; conditions: 1 µmol/L of BTK inhibitor
T4 construct: purchased Carna Biosciences

[5] = target: T5, AMPKα1/β1/γ1 (Homo sapiens, UniProt Q13131); test: as above; type: biochemical; conditions: 1 µmol/L of BTK inhibitor
T5 construct: purchased Carna Biosciences

[6] = target: T6, AurC (Homo sapiens, UniProt Q9UQB9); test: as above; type: biochemical; conditions: 1 µmol/L of BTK inhibitor
T6 construct: purchased Carna Biosciences
T6 sequence (Q9UQB9 1-309): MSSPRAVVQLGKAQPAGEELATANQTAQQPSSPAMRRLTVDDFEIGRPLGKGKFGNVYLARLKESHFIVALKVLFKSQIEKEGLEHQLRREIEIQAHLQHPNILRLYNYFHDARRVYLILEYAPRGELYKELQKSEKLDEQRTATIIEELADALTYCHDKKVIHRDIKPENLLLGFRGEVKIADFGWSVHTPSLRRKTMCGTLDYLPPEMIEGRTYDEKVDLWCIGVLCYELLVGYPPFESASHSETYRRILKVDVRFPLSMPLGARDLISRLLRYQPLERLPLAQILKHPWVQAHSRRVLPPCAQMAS

[7] = target: T7, CaMK2β (Homo sapiens, UniProt Q13554); test: as above; type: biochemical; conditions: 1 µmol/L of BTK inhibitor
T7 construct: purchased Carna Biosciences

[8] = target: T8, CDK2/CycA2 (Homo sapiens, UniProt P24941); test: as above; type: biochemical; conditions: 1 µmol/L of BTK inhibitor
T8 construct: purchased Carna Biosciences

[9] = target: T9, CDK7/CycH/MAT1 (Homo sapiens, UniProt P50613); test: as above; type: biochemical; conditions: 1 µmol/L of BTK inhibitor
T9 construct: purchased Carna Biosciences

[10] = target: T10, CK1γ1 (Homo sapiens, UniProt Q9HCP0); test: as above; type: biochemical; conditions: 1 µmol/L of BTK inhibitor
T10 construct: purchased Carna Biosciences

[11] = target: T11, CK2α1/β (Homo sapiens, UniProt P68400); test: as above; type: biochemical; conditions: 1 µmol/L of BTK inhibitor
T11 construct: purchased Carna Biosciences

[12] = target: T12, CLK2 (Homo sapiens, UniProt P49760); test: as above; type: biochemical; conditions: 1 µmol/L of BTK inhibitor
T12 construct: purchased Carna Biosciences

[13] = target: T13, GSK3α (Homo sapiens, UniProt P49840); test: as above; type: biochemical; conditions: 1 µmol/L of BTK inhibitor
T13 construct: purchased Carna Biosciences

[14] = target: T14, HIPK2 (Homo sapiens, UniProt Q9H2X6); test: as above; type: biochemical; conditions: 1 µmol/L of BTK inhibitor
T14 construct: purchased Carna Biosciences

[15] = target: T15, IRAK1 (Homo sapiens, UniProt P51617); test: as above; type: biochemical; conditions: 1 µmol/L of BTK inhibitor
T15 construct: purchased Carna Biosciences

[16] = target: T16, MAPKAPK2 (Homo sapiens, UniProt P49137); test: as above; type: biochemical; conditions: 1 µmol/L of BTK inhibitor
T16 construct: purchased Carna Biosciences

[17] = target: T17, MST4 (Homo sapiens, UniProt Q9P289); test: as above; type: biochemical; conditions: 1 µmol/L of BTK inhibitor
T17 construct: purchased Carna Biosciences

[18] = target: T18, NEK4 (Homo sapiens, UniProt P51957); test: as above; type: biochemical; conditions: 1 µmol/L of BTK inhibitor
T18 construct: purchased Carna Biosciences

[19] = target: T19, PAK4 (Homo sapiens, UniProt O96013); test: as above; type: biochemical; conditions: 1 µmol/L of BTK inhibitor
T19 construct: purchased Carna Biosciences

[20] = target: T20, PDHK2 (Homo sapiens, UniProt Q15119); test: as above; type: biochemical; conditions: 1 µmol/L of BTK inhibitor
T20 construct: purchased Carna Biosciences

[21] = target: T21, PHKG2 (Homo sapiens, UniProt P15735); test: as above; type: biochemical; conditions: 1 µmol/L of BTK inhibitor
T21 construct: purchased Carna Biosciences
T21 sequence (P15735 1-406): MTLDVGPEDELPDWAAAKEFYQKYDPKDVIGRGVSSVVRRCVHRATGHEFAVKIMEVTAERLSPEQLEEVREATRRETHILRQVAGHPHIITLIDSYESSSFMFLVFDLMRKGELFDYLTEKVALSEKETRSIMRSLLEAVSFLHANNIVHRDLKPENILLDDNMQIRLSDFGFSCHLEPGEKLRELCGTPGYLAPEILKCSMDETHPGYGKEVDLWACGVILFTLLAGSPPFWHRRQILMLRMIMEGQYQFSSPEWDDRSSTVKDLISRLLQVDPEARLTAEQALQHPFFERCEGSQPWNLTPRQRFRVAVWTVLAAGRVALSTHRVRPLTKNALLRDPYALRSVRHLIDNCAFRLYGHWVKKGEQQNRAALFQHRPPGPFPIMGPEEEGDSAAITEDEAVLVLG

[22] = target: T22, PIM3 (Homo sapiens, UniProt Q86V86); test: as above; type: biochemical; conditions: 1 µmol/L of BTK inhibitor
T22 construct: purchased Carna Biosciences

[23] = target: T23, PKCη (Homo sapiens, UniProt P24723); test: as above; type: biochemical; conditions: 1 µmol/L of BTK inhibitor
T23 construct: purchased Carna Biosciences

[24] = target: T24, RSK2 (Homo sapiens, UniProt P51812); test: as above; type: biochemical; conditions: 1 µmol/L of BTK inhibitor
T24 construct: purchased Carna Biosciences

[25] = target: T25, SRPK2 (Homo sapiens, UniProt P78362); test: as above; type: biochemical; conditions: 1 µmol/L of BTK inhibitor
T25 construct: purchased Carna Biosciences

[26] = target: FGFR3 (Homo sapiens, UniProt P22607); test: Kinase enzyme activity assay (mobility shift assay, Carna); conditions: FGFR3; 1 µmol/L of BTK inhibitor
[27] = target: ERK2 (Homo sapiens, UniProt P28482); test: as above; conditions: Erk2; 1 µmol/L of BTK inhibitor

T5 sequence (Q13131 whole entry): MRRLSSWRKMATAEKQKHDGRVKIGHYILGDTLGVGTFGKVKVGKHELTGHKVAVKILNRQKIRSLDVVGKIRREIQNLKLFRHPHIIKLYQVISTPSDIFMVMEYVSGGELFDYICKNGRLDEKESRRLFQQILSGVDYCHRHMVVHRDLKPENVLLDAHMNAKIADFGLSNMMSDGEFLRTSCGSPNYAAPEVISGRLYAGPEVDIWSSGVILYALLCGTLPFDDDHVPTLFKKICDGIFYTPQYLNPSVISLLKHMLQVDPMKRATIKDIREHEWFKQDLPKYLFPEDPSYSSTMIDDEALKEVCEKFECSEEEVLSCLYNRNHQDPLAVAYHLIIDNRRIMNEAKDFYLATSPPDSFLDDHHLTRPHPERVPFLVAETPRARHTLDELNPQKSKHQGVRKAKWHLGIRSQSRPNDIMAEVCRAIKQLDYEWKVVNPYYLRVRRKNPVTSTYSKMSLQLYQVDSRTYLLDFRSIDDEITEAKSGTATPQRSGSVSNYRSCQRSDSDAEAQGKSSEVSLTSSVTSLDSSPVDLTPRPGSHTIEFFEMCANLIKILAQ
T5 sequence (Q9Y478 whole entry partner): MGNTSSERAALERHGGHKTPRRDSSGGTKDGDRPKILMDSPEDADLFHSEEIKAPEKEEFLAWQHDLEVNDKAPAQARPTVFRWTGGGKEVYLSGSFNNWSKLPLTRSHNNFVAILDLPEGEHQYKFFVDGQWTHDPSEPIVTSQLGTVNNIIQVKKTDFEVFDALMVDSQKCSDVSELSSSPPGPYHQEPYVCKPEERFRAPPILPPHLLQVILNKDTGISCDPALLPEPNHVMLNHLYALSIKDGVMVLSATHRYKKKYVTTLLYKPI
T5 sequence (P54619 whole entry partner): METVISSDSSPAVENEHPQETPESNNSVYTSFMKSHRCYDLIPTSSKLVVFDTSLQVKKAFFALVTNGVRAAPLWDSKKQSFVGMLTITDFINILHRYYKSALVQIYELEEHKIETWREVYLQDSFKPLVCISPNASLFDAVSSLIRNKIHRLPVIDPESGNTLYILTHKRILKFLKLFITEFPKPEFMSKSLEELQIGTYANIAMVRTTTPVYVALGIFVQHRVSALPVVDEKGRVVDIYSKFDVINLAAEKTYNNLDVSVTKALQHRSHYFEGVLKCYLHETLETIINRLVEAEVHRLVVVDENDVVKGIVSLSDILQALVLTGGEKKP
T17 sequence (Q9P289 whole entry): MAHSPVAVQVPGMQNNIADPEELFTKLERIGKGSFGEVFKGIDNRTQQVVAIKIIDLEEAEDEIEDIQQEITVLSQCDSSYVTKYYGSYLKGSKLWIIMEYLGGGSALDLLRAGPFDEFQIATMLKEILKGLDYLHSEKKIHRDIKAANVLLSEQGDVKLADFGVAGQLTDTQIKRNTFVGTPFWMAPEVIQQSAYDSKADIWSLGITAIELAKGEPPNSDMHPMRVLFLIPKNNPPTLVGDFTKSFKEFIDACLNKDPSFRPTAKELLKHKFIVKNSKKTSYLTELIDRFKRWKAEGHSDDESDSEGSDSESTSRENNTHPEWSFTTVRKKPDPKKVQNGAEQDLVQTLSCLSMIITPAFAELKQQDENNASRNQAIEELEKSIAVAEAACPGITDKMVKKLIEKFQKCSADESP
T2 sequence (P08631 whole entry): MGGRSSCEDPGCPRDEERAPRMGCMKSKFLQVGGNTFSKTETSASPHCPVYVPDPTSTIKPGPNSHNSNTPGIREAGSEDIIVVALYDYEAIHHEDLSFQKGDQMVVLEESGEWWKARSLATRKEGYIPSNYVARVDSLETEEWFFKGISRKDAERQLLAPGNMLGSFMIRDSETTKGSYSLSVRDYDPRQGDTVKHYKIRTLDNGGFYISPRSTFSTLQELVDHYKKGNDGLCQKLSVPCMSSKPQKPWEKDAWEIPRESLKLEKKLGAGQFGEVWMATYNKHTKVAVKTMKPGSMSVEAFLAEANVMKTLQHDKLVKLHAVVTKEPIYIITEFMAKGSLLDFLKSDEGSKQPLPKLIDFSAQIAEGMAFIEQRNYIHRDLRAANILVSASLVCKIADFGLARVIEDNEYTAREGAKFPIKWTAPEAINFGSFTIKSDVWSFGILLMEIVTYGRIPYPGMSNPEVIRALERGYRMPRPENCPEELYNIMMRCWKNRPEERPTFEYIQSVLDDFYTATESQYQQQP
T19 sequence (O96013 whole entry): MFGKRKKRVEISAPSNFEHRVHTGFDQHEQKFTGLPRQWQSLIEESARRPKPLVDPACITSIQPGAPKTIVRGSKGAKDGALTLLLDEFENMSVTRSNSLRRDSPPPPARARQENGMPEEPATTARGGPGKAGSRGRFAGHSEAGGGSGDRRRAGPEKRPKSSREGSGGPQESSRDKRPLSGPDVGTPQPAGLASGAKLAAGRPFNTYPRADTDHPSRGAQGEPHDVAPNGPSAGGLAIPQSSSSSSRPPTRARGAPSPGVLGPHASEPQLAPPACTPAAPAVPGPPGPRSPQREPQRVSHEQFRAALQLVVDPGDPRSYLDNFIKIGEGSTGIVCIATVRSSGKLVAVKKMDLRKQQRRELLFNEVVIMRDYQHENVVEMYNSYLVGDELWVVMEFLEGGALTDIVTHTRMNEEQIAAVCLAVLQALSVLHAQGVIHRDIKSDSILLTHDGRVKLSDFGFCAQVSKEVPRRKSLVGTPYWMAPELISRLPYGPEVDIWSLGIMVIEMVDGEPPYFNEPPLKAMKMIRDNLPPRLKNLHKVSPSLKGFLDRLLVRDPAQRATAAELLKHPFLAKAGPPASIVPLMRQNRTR
T24 sequence (P51812 whole entry): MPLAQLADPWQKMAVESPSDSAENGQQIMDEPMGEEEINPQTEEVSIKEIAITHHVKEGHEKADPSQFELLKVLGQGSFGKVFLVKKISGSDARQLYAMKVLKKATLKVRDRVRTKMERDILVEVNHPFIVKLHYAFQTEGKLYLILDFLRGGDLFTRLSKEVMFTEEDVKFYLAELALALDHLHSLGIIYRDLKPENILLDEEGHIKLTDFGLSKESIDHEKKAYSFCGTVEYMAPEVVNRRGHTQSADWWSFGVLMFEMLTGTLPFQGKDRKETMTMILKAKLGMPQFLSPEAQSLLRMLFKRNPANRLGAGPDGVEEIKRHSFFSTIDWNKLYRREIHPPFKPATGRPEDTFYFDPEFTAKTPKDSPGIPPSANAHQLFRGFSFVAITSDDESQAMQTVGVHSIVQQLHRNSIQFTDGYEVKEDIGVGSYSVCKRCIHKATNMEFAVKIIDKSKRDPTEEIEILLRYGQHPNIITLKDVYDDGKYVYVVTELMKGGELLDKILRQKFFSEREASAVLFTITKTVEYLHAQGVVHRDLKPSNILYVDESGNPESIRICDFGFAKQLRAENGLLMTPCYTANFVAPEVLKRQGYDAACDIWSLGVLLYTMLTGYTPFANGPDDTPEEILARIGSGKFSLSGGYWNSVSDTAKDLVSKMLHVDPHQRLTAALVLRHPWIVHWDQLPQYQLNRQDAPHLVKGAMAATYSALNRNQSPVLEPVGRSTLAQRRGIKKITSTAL
T9 sequence (P50613 whole entry): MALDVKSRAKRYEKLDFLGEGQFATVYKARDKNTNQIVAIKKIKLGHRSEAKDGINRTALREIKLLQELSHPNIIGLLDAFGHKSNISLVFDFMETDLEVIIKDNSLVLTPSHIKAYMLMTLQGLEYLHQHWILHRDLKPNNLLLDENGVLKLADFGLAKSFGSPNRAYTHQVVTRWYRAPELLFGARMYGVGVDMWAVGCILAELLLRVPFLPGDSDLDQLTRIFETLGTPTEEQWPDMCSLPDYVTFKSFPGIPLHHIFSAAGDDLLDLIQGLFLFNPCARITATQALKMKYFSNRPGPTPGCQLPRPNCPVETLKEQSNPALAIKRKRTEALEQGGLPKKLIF
T9 sequence (P51946 whole entry partner): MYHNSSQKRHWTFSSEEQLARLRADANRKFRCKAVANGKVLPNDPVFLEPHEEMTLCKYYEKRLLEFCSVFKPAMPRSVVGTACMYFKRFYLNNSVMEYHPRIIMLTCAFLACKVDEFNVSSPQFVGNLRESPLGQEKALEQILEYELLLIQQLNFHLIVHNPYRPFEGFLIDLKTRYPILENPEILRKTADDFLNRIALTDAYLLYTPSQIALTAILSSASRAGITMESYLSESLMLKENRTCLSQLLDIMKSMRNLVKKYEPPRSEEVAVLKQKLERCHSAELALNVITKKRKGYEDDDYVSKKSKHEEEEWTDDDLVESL
T9 sequence (P51948 whole entry partner): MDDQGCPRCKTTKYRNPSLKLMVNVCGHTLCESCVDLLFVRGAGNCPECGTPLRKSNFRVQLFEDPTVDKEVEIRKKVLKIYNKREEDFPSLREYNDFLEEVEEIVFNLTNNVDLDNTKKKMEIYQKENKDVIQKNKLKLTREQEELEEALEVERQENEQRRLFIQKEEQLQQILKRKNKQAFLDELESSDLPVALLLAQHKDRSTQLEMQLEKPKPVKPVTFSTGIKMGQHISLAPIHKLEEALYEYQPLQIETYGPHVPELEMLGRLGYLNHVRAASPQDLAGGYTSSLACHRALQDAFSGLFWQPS
T13 sequence (P49840 whole entry): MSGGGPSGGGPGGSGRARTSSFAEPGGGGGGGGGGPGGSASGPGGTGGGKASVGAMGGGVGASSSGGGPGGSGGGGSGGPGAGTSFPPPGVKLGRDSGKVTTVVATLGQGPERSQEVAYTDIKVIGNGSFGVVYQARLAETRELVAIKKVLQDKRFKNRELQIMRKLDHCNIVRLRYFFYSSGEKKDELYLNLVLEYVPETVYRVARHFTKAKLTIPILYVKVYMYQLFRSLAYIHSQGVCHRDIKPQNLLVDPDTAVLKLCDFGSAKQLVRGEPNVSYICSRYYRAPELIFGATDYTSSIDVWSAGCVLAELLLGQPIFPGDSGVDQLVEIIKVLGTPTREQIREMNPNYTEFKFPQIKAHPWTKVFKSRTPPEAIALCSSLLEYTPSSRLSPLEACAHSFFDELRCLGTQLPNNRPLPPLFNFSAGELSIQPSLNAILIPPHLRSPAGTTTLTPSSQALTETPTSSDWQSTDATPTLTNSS

In the case of `COc1ccc(F)cc1C(=O)NCc1ccc(-c2nn([C@@H](C)C(F)(F)F)c(N)c2C(N)=O)cc1` [pirtobrutinib], the “Percentage inhibition of kinase enzyme activity” value (from here on “Percentage inhibition”) [1] was -8.86%, the “Percentage inhibition” value [2] was 24.69% and the “Percentage inhibition” value [3] was 4.28%. The “Percentage inhibition” value [4] was -2.78%, the “Percentage inhibition” value [5] was -7.93% and the “Percentage inhibition” value [6] was 39.97%. For the same compound, the “Percentage inhibition” value [7] was -2.89%, the “Percentage inhibition” value [8] was -4.56% and the “Percentage inhibition” value [9] was -4.77%. The “Percentage inhibition” value [10] was 5.92%, the “Percentage inhibition” value [11] was -1.74% and the “Percentage inhibition” value [12] was 10.54%. For the same compound, the “Percentage inhibition” value [13] was -5.30%, the “Percentage inhibition” value [14] was 0.19% and the “Percentage inhibition” value [15] was -6.46%. For the same compound, the “Percentage inhibition” value [16] was -13.00%, the “Percentage inhibition” value [17] was -7.97% and the “Percentage inhibition” value [18] was -3.18%. The “Percentage inhibition” value [19] was 4.35%, the “Percentage inhibition” value [20] was 0.06% and the “Percentage inhibition” value [21] was 7.27%. The “Percentage inhibition” value [22] was 1.44%, the “Percentage inhibition” value [23] was 3.32% and the “Percentage inhibition” value [24] was 2.95%. For the same compound, the “Percentage inhibition” value [25] was -2.34%, the “Percentage inhibition” value [26] was 1.40% and the “Percentage inhibition” value [27] was 6.64%.
